Measured values reported in ChEMBL document CHEMBL1154512, “PA-824 kills nonreplicating Mycobacterium tuberculosis by intracellular NO release” (2008).
Activity calls are given as the source filed them. No cut-off for these calls is given here.

System: Mycobacterium tuberculosis
Test: Bactericidal activity against Mycobacterium tuberculosis prcAB/tetR mutant after 3 days under anaerobic condition by serial dilution method
Assay type: functional, organism-based

SMILES: O=[N+]([O-])c1cn2c(n1)OC[C@@H](OCc1ccc(OC(F)(F)F)cc1)C2 [PRETOMANID]
- Activity: Active
